Measurements as given in patent US20040086904A1, “Screening assay for cotranslational translocation interfering compounds” (priority 2001, published 2004).

Key:
[1] = system: IL4 SP-SEAP fusion construct; assay: SP-SEAP assay, secretion of SEAP into the medium; type: cell-based; conditions: transient overexpression in mammalian cells, increasing concentrations
Method: (§1) Cell Culture and Transient Transfections HEK293 cells are maintained in Dulbeccos' modified Eagle's medium (DMEM, Gibco-BRL), supplemented with 10% heat-inactivated fetal calf serum (FCS, Bio-Whittaker) and 100 Units/ml each of penicillin (BC) and streptomycin (Gibco-BRL) at 37° in a 5% humidified CO2 incubator. HUVEC cells are cultured in endothelial cell basal medium (EBM, Clonetics Corp.) supplemented with 10% FCS, 5×10^−4 M dibutyryl cAMP (Sigma), 1 μg/ml hydrocortisone (Sigma) and 10 ng/ml human EGF (Boehringer) at 37° in a 5% humidified CO2 incubator. VCAM-1 production is stimulated by incubation with 100U/ml TNF-α for ca. 8 hours. For transient transfection, HEK293 cells are seeded into 6-well or 24-well cell culture dishes at a density of 6×10^5 cells/well or 1.5×10^5 cells/well, respectively, the day prior to transfection and grown to 50-70% confluency. Cells are transfected with 2 μg or 1 μg of plasmid DNA, respectively, using the SuperFect reagent (Qiagen) according to the supplier's recommendations. Cells are incubated either without or with addition of a candidate compound, respectively, at concentrations indicated for ca. 24 to 48 hours. For proteasome inhibition experiments Lactacystin (Calbiochem) is added at a final concentration of 5 μM alone or together with a candidate compound 5 hours post-transfection, respectively.
(§2) Human placental SEAP levels in cell supernatants are determined using either a fluorescence-based assay or an assay that measures light absorbance at 405 nm accompanying hydrolysis of pNPP according to the method described (Berger et al., 1988). Briefly, a 500 μl aliquot of medium is removed from the culture dish, clarified for 1 min at 14,000×g and heated for 5 minutes at 65°. An aliquot of medium (10 μl-100 μl) is adjusted to 1x SEAP buffer (1.0 M diethanolamine, pH 9.8, 0.5 mM MgCl2, 10 mM L-homoarginine) in a final volume of 200 μl in a 96-well flat bottom culture dish (Nunc) and prewarmed to 37° for 10 min. 20 μl of 120 mM pNPP in 1x SEAP buffer prewarmed to 37° is added and the change in absorbance at 37° is plotted. Heating step and inclusion of L-homoarginine in the assay buffer inhibit any endogenous phophatase activity. For determination of SEAP levels by a fluorescence-based assay the Atto Phos AP Fluorescent Substrate Sysem (Promega) is used according to the manufacturer's instructions.
(§3) To further validate the novel assay system claimed in the present invention we generated SP-SEAP fusion constructs similarily to the method as described in example 1, but using the SP of other protein targets playing critical roles in various disease processes and tested their functionality by transient overexpression in mammalian cells in the absence or presence of increasing concentrations of compound CP as described (FIG. 7). […]

[2] = system: MCP-1 SP-SEAP fusion construct; assay: SP-SEAP assay, secretion of SEAP into the medium; type: cell-based; conditions: transient overexpression in mammalian cells, increasing concentrations
Method: as §1, §2, §3

[3] = system: IL-12p40 SP-SEAP fusion construct; assay: SP-SEAP assay, secretion of SEAP into the medium; type: cell-based; conditions: transient overexpression in mammalian cells, increasing concentrations
Method: as §1, §2, §3

[4] = system: VEGF SP-SEAP construct; assay: SP-SEAP assay, secretion of SEAP into the medium; type: cell-based; conditions: transient overexpression in mammalian cells, increasing concentrations, dose dependent, compared to VCAM-1 SP-SEAP
Method: as §1, §2, §3

[5] = system: VCAMSP-SEAP construct; assay: SP-SEAP assay, secretion of SEAP into the medium; type: cell-based; conditions: transiently transfected cells, increasing concentrations
Method: as §1, with “For proteasome inhibition experiments Lactacystin (Calbiochem) is added at a final concentration of 5 μM alone or together with a candidate compound 5 hours post-transfection, respectively.” left out
(§4) Human placental SEAP levels in cell supernatants are determined using either a fluorescence-based assay or an assay that measures light absorbance at 405 nm accompanying hydrolysis of pNPP according to the method described (Berger et al., 1988). […] 20 μl of 120 mM pNPP in 1x SEAP buffer prewarmed to 37° is added and the change in absorbance at 37° is plotted. […] For determination of SEAP levels by a fluorescence-based assay the Atto Phos AP Fluorescent Substrate Sysem (Promega) is used according to the manufacturer's instructions.
(§5) For the establishment and as a first proof of principle of an assay (system) according to the present invention, SP-reporter gene fusion constructs are generated using the SP of compound sensitive and insensitive proteins, respectively, and the mature sequence of placental SEAP as the reporter gene (see FIG. 5). […] Finally, secretion of the reporter SEAP protein into the medium is determined. […]

[6] = system: VCAMSP(15+4)-SEAP construct; assay: SP-SEAP assay, secretion of SEAP into the medium; type: cell-based; conditions: transiently transfected cells, increasing concentrations, dose-dependent
Method: as §1, with “For proteasome inhibition experiments Lactacystin (Calbiochem) is added at a final concentration of 5 μM alone or together with a candidate compound 5 hours post-transfection, respectively.” left out
as §4, §5

[7] = system: E-SelectinSP-SEAP fusion protein; assay: SP-SEAP assay, secretion of SEAP into the medium; type: cell-based; conditions: transiently transfected cells, increasing concentrations
Method: as §1, with “For proteasome inhibition experiments Lactacystin (Calbiochem) is added at a final concentration of 5 μM alone or together with a candidate compound 5 hours post-transfection, respectively.” left out
as §4, §5

[8] = target: T1, E-Selectin (Homo sapiens, UniProt P16581); assay: Transient expression of E-Selectin in HEK293 cells, Western blot / immunoblot; type: cell-based; conditions: transiently transfected HEK293 cells, 48 hours post-transfection, increasing concentrations
T1 construct: Full length cDNAs of the adhesion molecules VCAM-1, ICAM-1 and E-Selectin are transcribed and translated; host or cells: cell-free: coupled TNT reticulocyte lysate (Promega) with dog pancreatic microsomes
T1 sequence (P16581 22-610): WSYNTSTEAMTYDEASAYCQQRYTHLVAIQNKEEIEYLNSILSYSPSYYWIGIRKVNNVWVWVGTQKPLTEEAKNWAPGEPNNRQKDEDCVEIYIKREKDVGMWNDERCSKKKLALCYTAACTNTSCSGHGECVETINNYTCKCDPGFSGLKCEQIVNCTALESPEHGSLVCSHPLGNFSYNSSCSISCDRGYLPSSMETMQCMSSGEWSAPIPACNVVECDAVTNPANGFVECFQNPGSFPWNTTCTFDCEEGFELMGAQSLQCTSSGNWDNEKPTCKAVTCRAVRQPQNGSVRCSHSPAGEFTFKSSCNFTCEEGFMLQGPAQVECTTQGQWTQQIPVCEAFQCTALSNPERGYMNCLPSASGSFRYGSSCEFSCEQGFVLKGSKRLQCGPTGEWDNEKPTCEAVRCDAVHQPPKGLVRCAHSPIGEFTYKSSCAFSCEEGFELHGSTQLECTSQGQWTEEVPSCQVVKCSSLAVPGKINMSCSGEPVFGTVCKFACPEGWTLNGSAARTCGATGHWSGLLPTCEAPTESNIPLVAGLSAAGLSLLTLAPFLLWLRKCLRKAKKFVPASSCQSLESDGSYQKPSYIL
Method: The E-Selectin and ICAM-1 expression vectors pCDM8-E-selectin and pCDM8-ICAM-1 allowing transient expression in mammalian cells and cell-free translation are obtained from R&D Systems. VCAM-1 cDNA is obtained by reverse transcription of total RNA from TNF-α stimulated primary human umbilical vein endothelial cells (HUVEC) as follows. After extraction of total RNA with Trizol (GibcoBRL) according to the suppliers recommendations, reverse transcription (RT) PCR on approximately 3 μg total HUVEC RNA is performed using the Advantage High Fidelity PCR kit (CLONTECH) under standard conditions with N- and C-terminal VCAM-1-specific sense and antisense oligonucleotide primers, respectively. Primers are tailed, introducing a Kpnl restriction site 5′ of the Kozak sequence and a Xhol site 3′ of the stop codon. Placental SEAP is amplified accordingly by PCR using plasmid pBC 12/PLAP489 (Berger et al., 1988) as a template and similar tailed SEAP-specific sense and antisense oligonuclotide primers. The SEAP and VCAM-1 cDNAs are isolated and cloned into the pCR2.1 vector (TA cloning kit, Invitrogen). […] Approximately equal molar quantities of each PCR product A and B are phosphorylated and ligated. […]
Protein expression in cells is analyzed by Western blot and subsequent immunoblot analysis. […]

[9] = target: T1, E-Selectin; assay: Cell-free translation/translocation assay, E-Selectin; type: biochemical; conditions: reticulocyte lysate with dog pancreatic microsomes, at the concentrations tested
Text: Proteins are radioactively labelled and visualised by autoradlography.

synthesis of E-Selectin [8]: not-affected | translocation of E-Selectin [9]: resistant
Compound: CCCCC(C)CC1NC(=O)C(Cc2cn(OC)c3ccccc23)N(C)C(=O)C(CC(C)C)NC(=O)C(CC(C)C)N(C)C(=O)C(CC(C)CCCC)NC(=O)C(CCC(=O)OCCC)OC(=O)C(C)N(C)C1=O (stereo not drawn) [CP]
sensitivity of SEAP secretion to the compound [1]: insensitive | sensitivity of SEAP secretion to the compound [2]: insensitive | sensitivity of SEAP secretion to the compound [3]: insensitive | sensitivity of SEAP secretion to the compound [4]: sensitive | sensitivity of SEAP secretion to the compound [5]: slight sensitivity | sensitivity of SEAP secretion to the compound [6]: full sensitivity | sensitivity of SEAP secretion to the compound [7]: compound-insensitive
